Assay results taken from patent publication US10954269B2, “Anti-inflammatory tripeptides” (Dr. August Wolff Gmbh & Co. KG Arzneimittel, priority 2013, dated 2021).

Assays:
[1] = system: primary human T-cells; test: Cytokine secretion on protein level in activated primary human T-cells (13-plex FACS / Luminex, supernatant); type: cell-based; settings: for IL-1 cytokine concentration / IL-2 cytokine concentration / IL-4 cytokine concentration / IL-5 cytokine concentration / IL-6 cytokine concentration / IL-9 cytokine concentration / IL-10 cytokine concentration / IL-12p70 cytokine concentration / IL-13 cytokine concentration / IL-17 cytokine concentration / IL-22 cytokine concentration / TNF-α cytokine concentration / INF-α cytokine concentration: substance 10^−9M
In short: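 First, T-cells are isolated from healthy donors' blood. Next, they and HaCaT keratinocytes are activated for 48 h with PMA/Ionomycin or IFN-γ in the presence of tripeptides. Finally, secreted cytokines are quantified in supernatants by 13-plex FACS at 48 and 72 h.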

[2] = system: human keratinocyte cell line (HaCaT); test: Cytokine secretion on protein level in activated human keratinocyte cell line HaCaT (13-plex FACS / Luminex, supernatant); type: cell-based; settings: substance 10^−9M
In short: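 Stimulus: PMA/Ionomycin or IFN-γ, 48 h; cells: HaCaT or human peripheral-blood T-cells; tripeptide treatment; readout: supernatant cytokines via 13-plex FACS or Luminex, 48–72 h post-stimulation.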

[3] = system: primary murine T-cells; test: Cytokine secretion on protein level in activated primary murine T-cells (13-plex FACS / Luminex, supernatant); type: cell-based, C57BL/6 mice; settings: for IL-1 cytokine concentration / IL-2 cytokine concentration / IL-4 cytokine concentration / IL-5 cytokine concentration / IL-6 cytokine concentration / IL-10 cytokine concentration / IL-13 cytokine concentration / IL-17 cytokine concentration / IL-21 cytokine concentration / IL-22 cytokine concentration / IL-27 cytokine concentration / TNF-α cytokine concentration / IFN-γ cytokine concentration: substance 10^−9M
In short: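 T-cells from secondary lymphatic organs of naïve C57BL/6 mice, stimulated with PMA/Ionomycin or IFN-γ; supernatant cytokines measured by 13-plex FACS 48 h and 72 h after stimulation. In another run, PMA/Ionomycin-stimulated cells received compounds at 10^−7, 10^−9 and 10^−11 M, with IFN-γ, IL-17 and IL-10 measured by Luminex.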

[4] = primary human T-cells stimulated with IFN-γ
[5] = primary human T-cells stimulated with PBS
[6] = primary human T-cells stimulated with PMA/Ionomycin
[7] = HaCaT stimulated with PMA/Ionomycin
[8] = primary murine T-cells stimulated with IFN-γ
[9] = primary murine T-cells stimulated with PBS
[10] = primary murine T-cells stimulated with PMA/Ionomycin

Substance: N^α,N^α-dimethyl-(L)-Phe-(D)-Pro-N^α-methyl-(L)-Thr-OH [Example 7]
- secretion / expression of pro-inflammatory cytokines (supernatant) ([1]; activated primary human T-cells): immunomodulatory effects were seen
- IL-1 cytokine concentration [1, 4]: 0 pg/mL
- IL-2 cytokine concentration [1, 4]: 0 pg/mL
- IL-4 cytokine concentration [1, 4]: 83.34 pg/mL
- IL-5 cytokine concentration [1, 4]: 0 pg/mL
- IL-6 cytokine concentration [1, 4]: 56.38 pg/mL
- IL-9 cytokine concentration [1, 4]: 0 pg/mL
- IL-10 cytokine concentration [1, 4]: 69.21 pg/mL
- IL-12p70 cytokine concentration [1, 4]: 0 pg/mL
- IL-13 cytokine concentration [1, 4]: 59.7 pg/mL
- IL-17 cytokine concentration [1, 4]: 0 pg/mL
- IL-22 cytokine concentration [1, 4]: 0 pg/mL
- TNF-α cytokine concentration [1, 4]: 0 pg/mL
- IL-1 cytokine concentration [1, 5]: 154.31 pg/mL
- IL-2 cytokine concentration [1, 5]: 126.59 pg/mL
- IL-4 cytokine concentration [1, 5]: 0 pg/mL
- IL-5 cytokine concentration [1, 5]: 8.58 pg/mL
- IL-6 cytokine concentration [1, 5]: 122.64 pg/mL
- IL-9 cytokine concentration [1, 5]: 13.42 pg/mL
- IL-10 cytokine concentration [1, 5]: 121.25 pg/mL
- IL-12p70 cytokine concentration [1, 5]: 0 pg/mL
- IL-13 cytokine concentration [1, 5]: 0 pg/mL
- IL-17 cytokine concentration [1, 5]: 95.69 pg/mL
- IL-22 cytokine concentration [1, 5]: 0 pg/mL
- INF-α cytokine concentration [1, 5]: 69.17 pg/mL
- TNF-α cytokine concentration [1, 5]: 51.46 pg/mL
- IL-1 cytokine concentration [1, 6]: 508.96 pg/mL
- IL-2 cytokine concentration [1, 6]: 1650.58 pg/mL
- IL-4 cytokine concentration [1, 6]: 72.07 pg/mL
- IL-5 cytokine concentration [1, 6]: 357.88 pg/mL
- IL-6 cytokine concentration [1, 6]: 1100.07 pg/mL
- IL-9 cytokine concentration [1, 6]: 263.36 pg/mL
- IL-10 cytokine concentration [1, 6]: 842.93 pg/mL
- IL-12p70 cytokine concentration [1, 6]: 0 pg/mL
- IL-13 cytokine concentration [1, 6]: 991.61 pg/mL
- IL-17 cytokine concentration [1, 6]: 2611.96 pg/mL
- IL-22 cytokine concentration [1, 6]: 0 pg/mL
- INF-α cytokine concentration [1, 6]: 6989.26 pg/mL
- TNF-α cytokine concentration [1, 6]: 2062.57 pg/mL
- IL-1 cytokine concentration ([2]; HaCaT stimulated with IFN-γ): 109.65 pg/mL
- IL-2 cytokine concentration ([2]; HaCaT stimulated with IFN-γ): 267.78 pg/mL
- IL-4 cytokine concentration ([2]; HaCaT stimulated with IFN-γ): 0 pg/mL
- IL-5 cytokine concentration ([2]; HaCaT stimulated with IFN-γ): 0 pg/mL
- IL-6 cytokine concentration ([2]; HaCaT stimulated with IFN-γ): 470.44 pg/mL
- IL-9 cytokine concentration ([2]; HaCaT stimulated with IFN-γ): 14.88 pg/mL
- IL-10 cytokine concentration ([2]; HaCaT stimulated with IFN-γ): 0 pg/mL
- IL-12p70 cytokine concentration ([2]; HaCaT stimulated with IFN-γ): 0 pg/mL
- IL-13 cytokine concentration ([2]; HaCaT stimulated with IFN-γ): 1843.69 pg/mL
- IL-17 cytokine concentration ([2]; HaCaT stimulated with IFN-γ): 202.45 pg/mL
- IL-22 cytokine concentration ([2]; HaCaT stimulated with IFN-γ): 0 pg/mL
- TNF-α cytokine concentration ([2]; HaCaT stimulated with IFN-γ): 0 pg/mL
- IFN-γ cytokine concentration ([2]; HaCaT stimulated with PBS): 0 pg/mL
- IL-1 cytokine concentration ([2]; HaCaT stimulated with PBS): 181.03 pg/mL
- IL-2 cytokine concentration ([2]; HaCaT stimulated with PBS): 180.91 pg/mL
- IL-4 cytokine concentration ([2]; HaCaT stimulated with PBS): 0 pg/mL
- IL-5 cytokine concentration ([2]; HaCaT stimulated with PBS): 113.28 pg/mL
- IL-6 cytokine concentration ([2]; HaCaT stimulated with PBS): 119.59 pg/mL
- IL-9 cytokine concentration ([2]; HaCaT stimulated with PBS): 0 pg/mL
- IL-10 cytokine concentration ([2]; HaCaT stimulated with PBS): 0 pg/mL
- IL-12p70 cytokine concentration ([2]; HaCaT stimulated with PBS): 0 pg/mL
- IL-13 cytokine concentration ([2]; HaCaT stimulated with PBS): 1910.22 pg/mL
- IL-17 cytokine concentration ([2]; HaCaT stimulated with PBS): 0 pg/mL
- IL-22 cytokine concentration ([2]; HaCaT stimulated with PBS): 0 pg/mL
- TNF-α cytokine concentration ([2]; HaCaT stimulated with PBS): 21.66 pg/mL
- IFN-γ cytokine concentration [2, 7]: 450.42 pg/mL
- IL-1 cytokine concentration [2, 7]: 0 pg/mL
- IL-2 cytokine concentration [2, 7]: 218.82 pg/mL
- IL-4 cytokine concentration [2, 7]: 112.94 pg/mL
- IL-5 cytokine concentration [2, 7]: 88.67 pg/mL
- IL-6 cytokine concentration [2, 7]: 359.17 pg/mL
- IL-9 cytokine concentration [2, 7]: 14.57 pg/mL
- IL-10 cytokine concentration [2, 7]: 64.01 pg/mL
- IL-12p70 cytokine concentration [2, 7]: 0 pg/mL
- IL-13 cytokine concentration [2, 7]: 1877.03 pg/mL
- IL-17 cytokine concentration [2, 7]: 209.12 pg/mL
- IL-22 cytokine concentration [2, 7]: 0 pg/mL
- TNF-α cytokine concentration [2, 7]: 0 pg/mL
- secretion / expression of pro-inflammatory cytokines (supernatant) ([3]; activated primary murine T-cells): immunomodulatory effects were seen
- IL-1 cytokine concentration [3, 8]: 88.23 pg/mL
- IL-2 cytokine concentration [3, 8]: 98.22 pg/mL
- IL-4 cytokine concentration [3, 8]: 40.87 pg/mL
- IL-5 cytokine concentration [3, 8]: 265.4 pg/mL
- IL-6 cytokine concentration [3, 8]: 123.98 pg/mL
- IL-10 cytokine concentration [3, 8]: 1199.53 pg/mL
- IL-13 cytokine concentration [3, 8]: 0 pg/mL
- IL-17 cytokine concentration [3, 8]: 84.26 pg/mL
- IL-21 cytokine concentration [3, 8]: 0 pg/mL
- IL-22 cytokine concentration [3, 8]: 50.37 pg/mL
- IL-27 cytokine concentration [3, 8]: 0 pg/mL
- TNF-α cytokine concentration [3, 8]: 25.58 pg/mL
- IFN-γ cytokine concentration [3, 9]: 0 pg/mL
- IL-1 cytokine concentration [3, 9]: 62.38 pg/mL
- IL-2 cytokine concentration [3, 9]: 137.05 pg/mL
- IL-4 cytokine concentration [3, 9]: 60.56 pg/mL
- IL-5 cytokine concentration [3, 9]: 317.47 pg/mL
- IL-6 cytokine concentration [3, 9]: 129.26 pg/mL
- IL-10 cytokine concentration [3, 9]: 1283.71 pg/mL
- IL-13 cytokine concentration [3, 9]: 0 pg/mL
- IL-17 cytokine concentration [3, 9]: 0 pg/mL
- IL-21 cytokine concentration [3, 9]: 0 pg/mL
- IL-22 cytokine concentration [3, 9]: 15.86 pg/mL
- IL-27 cytokine concentration [3, 9]: 61.43 pg/mL
- TNF-α cytokine concentration [3, 9]: 53.67 pg/mL
- IFN-γ cytokine concentration [3, 10]: 1916.21 pg/mL
- IL-1 cytokine concentration [3, 10]: 154.26 pg/mL
- IL-2 cytokine concentration [3, 10]: 99.71 pg/mL
- IL-4 cytokine concentration [3, 10]: 99.12 pg/mL
- IL-5 cytokine concentration [3, 10]: 246.42 pg/mL
- IL-6 cytokine concentration [3, 10]: 184.98 pg/mL
- IL-10 cytokine concentration [3, 10]: 1233.22 pg/mL
- IL-13 cytokine concentration [3, 10]: 0 pg/mL
- IL-17 cytokine concentration [3, 10]: 67.92 pg/mL
- IL-21 cytokine concentration [3, 10]: 0 pg/mL
- IL-22 cytokine concentration [3, 10]: 71.09 pg/mL
- IL-27 cytokine concentration [3, 10]: 90.15 pg/mL
- TNF-α cytokine concentration [3, 10]: 40.87 pg/mL
